Where “and” joins values, the source holds several entries; their conditions need not be identical. Identical values can stand only once.
Legend:
prostaglandin F2a = type: cell-based; details: 5 μM
Keratinocytes = details: 5 μM

## CS(=O)(=O)Nc1ccc([N+](=O)[O-])cc1OC1CCCCC1 [NS-398]
Prostaglandin F2a
  Absorbance value (405 nm), individual measurements (n=4): 0.6170 and 0.6000 and 0.6110 and 0.6220
  PGF2alpha (pg/mL), individual measurements (n=4): 70.9 pg/mL and 86.8 pg/mL and 76.1 pg/mL and 66.8 pg/mL
  PGF2alpha (pg/mL)/MTT, Mean: 86.3 (pg/mL)/MTT
  PGF2alpha (pg/mL)/MTT, individual measurements (n=4): 81.5 (pg/mL)/MTT and 101.6 (pg/mL)/MTT and 86.6 (pg/mL)/MTT and 75.4 (pg/mL)/MTT
  prostaglandin F2a expression, % of control: 9.3%
Keratinocytes
  Cytotoxicity test (MTT), % of control: 102.0%
  Cytotoxicity test (MTT), Mean: 0.8720
